Where a SMILES comes first, the peptide text is derived from it. [ ]: non-standard residue; d: D form. The star is where a group is joined. pY = N[C@@H](Cc1ccc(OP(=O)(O)O)cc1)C(=O)O; Dopa = N[C@@H](Cc1ccc(O)c(O)c1)C(=O)O; Caffeoyl = O=C(/C=C/c1ccc(O)c(O)c1)*; X1 = O=C(Cc1cc(=O)oc2cc(O)ccc12)*
How the values were obtained:
[1] = target: Tyrosine-protein kinase Fyn (Homo sapiens, UniProt P06241); test: Affinity for GST-Fyn-SH2 domain in ELISA
[2] = target: Proto-oncogene tyrosine-protein kinase Src (Homo sapiens, UniProt P12931); test: Affinity for GST- Src-SH2 domain in ELISA
Proto-oncogene tyrosine-protein kinase Src, sequence (P12931 2-536 limits assumed): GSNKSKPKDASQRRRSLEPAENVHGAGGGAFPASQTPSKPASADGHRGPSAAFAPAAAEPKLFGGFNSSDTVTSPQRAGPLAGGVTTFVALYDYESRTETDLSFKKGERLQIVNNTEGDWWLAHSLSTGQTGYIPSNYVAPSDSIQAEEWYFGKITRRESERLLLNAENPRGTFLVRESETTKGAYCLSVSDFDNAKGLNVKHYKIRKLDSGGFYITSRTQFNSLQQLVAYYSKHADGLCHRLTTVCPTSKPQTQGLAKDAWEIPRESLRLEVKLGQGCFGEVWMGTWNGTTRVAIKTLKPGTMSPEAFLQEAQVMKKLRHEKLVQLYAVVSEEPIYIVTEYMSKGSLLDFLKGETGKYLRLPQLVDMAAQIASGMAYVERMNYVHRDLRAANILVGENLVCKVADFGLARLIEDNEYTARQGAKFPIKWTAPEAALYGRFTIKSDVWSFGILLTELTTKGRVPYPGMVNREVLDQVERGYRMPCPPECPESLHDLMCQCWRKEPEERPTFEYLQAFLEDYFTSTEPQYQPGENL

[3] = target: Tyrosine-protein kinase Lck (Homo sapiens, UniProt P06239); test: Affinity for GST-Lck-SH2 domain in ELISA
Tyrosine-protein kinase Lck, sequence (P06239 whole entry, the tested form may be a part): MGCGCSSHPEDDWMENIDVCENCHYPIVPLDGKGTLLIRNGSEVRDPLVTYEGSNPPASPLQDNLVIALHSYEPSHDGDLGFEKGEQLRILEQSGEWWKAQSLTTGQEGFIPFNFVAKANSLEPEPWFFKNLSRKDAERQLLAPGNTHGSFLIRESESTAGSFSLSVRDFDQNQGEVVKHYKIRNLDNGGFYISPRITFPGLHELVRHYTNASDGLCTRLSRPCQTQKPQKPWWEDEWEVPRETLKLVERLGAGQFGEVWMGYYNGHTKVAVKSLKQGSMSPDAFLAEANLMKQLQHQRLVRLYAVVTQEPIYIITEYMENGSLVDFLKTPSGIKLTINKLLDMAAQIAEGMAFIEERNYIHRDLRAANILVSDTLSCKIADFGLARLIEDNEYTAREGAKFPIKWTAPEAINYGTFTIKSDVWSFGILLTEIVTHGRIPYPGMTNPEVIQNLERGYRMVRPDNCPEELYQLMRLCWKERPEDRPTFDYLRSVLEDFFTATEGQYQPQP

Tyrosine-protein kinase Fyn, sequence (P06241 whole entry, the tested form may be a part): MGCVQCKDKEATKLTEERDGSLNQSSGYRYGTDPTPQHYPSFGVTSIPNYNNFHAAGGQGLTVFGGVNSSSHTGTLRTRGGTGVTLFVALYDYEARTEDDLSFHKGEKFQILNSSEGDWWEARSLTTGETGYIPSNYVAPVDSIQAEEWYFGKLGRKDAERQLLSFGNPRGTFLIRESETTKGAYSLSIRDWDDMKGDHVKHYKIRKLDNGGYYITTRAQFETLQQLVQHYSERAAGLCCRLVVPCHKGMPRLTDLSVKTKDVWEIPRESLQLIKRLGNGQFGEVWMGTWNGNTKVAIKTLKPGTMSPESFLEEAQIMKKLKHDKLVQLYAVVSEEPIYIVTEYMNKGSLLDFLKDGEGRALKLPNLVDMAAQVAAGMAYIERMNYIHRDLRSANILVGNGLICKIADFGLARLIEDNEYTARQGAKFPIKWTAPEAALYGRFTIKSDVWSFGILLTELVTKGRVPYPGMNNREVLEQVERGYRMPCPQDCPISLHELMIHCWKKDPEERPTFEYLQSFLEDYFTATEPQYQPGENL

| Compound | IC50 [1] [µM] | IC50 [2] [µM] | IC50 [3] [µM] |
| --- | --- | --- | --- |
| CC[C@H](C)[C@H](NC(=O)[C@H](CCC(=O)O)NC(=O)[C@H](CCC(=O)O)NC(=O)[C@H](Cc1ccc(O)c(O)c1)NC(=O)/C=C/c1ccc(O)c(O)c1)C(=O)N[C@@H](CCC(=O)O)C(=O)O (Caffeoyl-[Dopa]EEIE-OH) | 33 | 55 | 18 |
| CC[C@H](C)[C@H](NC(=O)[C@H](CCC(=O)O)NC(=O)[C@H](CCC(=O)O)NC(=O)[C@H](Cc1ccc(OP(=O)(O)O)cc1)NC(=O)/C=C/c1ccc(O)c(O)c1)C(=O)N[C@@H](CCC(=O)O)C(=O)O (Caffeoyl-[pY]EEIE-OH) | 0.084 | 0.064 | 0.042 |
| Ac-YAEIE-OH | 11 | 7 | 3.8 |
| Ac-YEEIE-OH | > 200 | > 200 | > 200 |

Further lines, results first:

| IC50 [1] [µM] | IC50 [2] [µM] | IC50 [3] [µM] | Compound |
| --- | --- | --- | --- |
| > 200 | 160 | 120 | CC(=O)N[C@@H](Cc1ccc(O)c(O)c1)C(=O)N[C@@H](CCC(=O)O)C(=O)N[C@@H](CCC(=O)O)C(=O)N[C@@H](CCC(=O)O)C(=O)O (Ac-[Dopa]EEE-OH) |
| 1.1 | – | 1.3 | CC[C@H](C)[C@H](NC(=O)[C@H](CCC(=O)O)NC(=O)[C@H](CCC(=O)O)NC(=O)[C@H](Cc1ccc(OP(=O)(O)O)cc1)NC(C)=O)C(=O)N[C@@H](CCC(=O)O)C(=O)O (Ac-[pY]EEIE-OH) |
| 45 | 54 | 27 | CC[C@H](C)[C@H](NC(=O)[C@H](CCC(=O)O)NC(=O)[C@H](CCC(=O)O)NC(=O)[C@H](Cc1ccc(O)cc1)NC(=O)/C=C/c1ccc(O)c(O)c1)C(=O)N[C@@H](CCC(=O)O)C(=O)O (Caffeoyl-YEEIE-OH) |
| 77 | 65 | 58 | CC[C@H](C)[C@H](NC(=O)[C@H](CCC(=O)O)NC(=O)[C@H](CCC(=O)O)NC(=O)[C@H](Cc1ccc(O)c(O)c1)NC(=O)Cc1cc(=O)oc2cc(O)ccc12)C(=O)N[C@@H](CCC(=O)O)C(=O)O (X1-[Dopa]EEIE-OH) |
| 0.1 | 0.09 | 0.081 | CC[C@H](C)[C@H](NC(=O)[C@H](CCC(=O)O)NC(=O)[C@H](CCC(=O)O)NC(=O)[C@H](Cc1ccc(OP(=O)(O)O)cc1)NC(=O)Cc1cc(=O)oc2cc(O)ccc12)C(=O)N[C@@H](CCC(=O)O)C(=O)O (X1-[pY]EEIE-OH) |

Source: ChEMBL document CHEMBL1135345, “Design and characterization of non-phosphopeptide inhibitors for Src family SH2 domains” (Bioorg Med Chem Lett, 2002)
